Assay results from US9446066B2, “Methods for reducing pulmonary uptake of intravenously injected cells” (priority 2010, dated 2016).
Where “and” joins values, the source holds several entries; their conditions need not be identical. Identical values can stand only once.

Tests used:
[1] = system: T-lymphoblasts; assay: PET-examination of lung uptake and distribution of transfused [18F]FDG-labeled T-lymphoblasts; type: in vivo, pig; conditions: for pulmonary uptake of T-lymphoblasts compared to intravenous administration alone (in words): pre-incubation and intravenous co-administration with dextran sulfate
Experimental: In this study we present a method to monitor transfusion of T-lymphoblasts in vivo in a porcine model by PET-imaging. Porcine T-lymphoblasts were labeled with [^18F]FDG prior to administration, and the kinetics and bio-distribution of the cells was monitored for up to 2 hours. [^18F]FDG is a functional analogue to glucose, but cannot be metabolized further than the initial phosphorylation by hexokinase and is trapped in the cell cytoplasm. The same concept has been applied by our group to image transplantation of islets of Langerhans in a porcine model and in the clinical setting.
In the present work, three modes of administration were compared; intravenous administration with or without co-administration of the complement and coagulatory inhibitor low molecular weight dextran sulphate (LMW-DS), and intraarterial administration.
Spleens from three months old pigs were surgically resected and stored in PBS for immediate preparation. Spleens were cut into smaller fragments and mashed first against a 1 mm steel mesh and a second time with a syringe rubber plunger against a fine nylon mesh. The tissue was resuspended in PBS and the T-lymphoblasts were isolated using Ficoll-Paque (GE-Healthcare Uppsala, Sweden) density gradient centrifugation. All T-lymphoblasts were activated with PHA (1 μg/mL) (Invitrogen, Carlsbad, Calif., USA) to simulate the clinical setting of adoptively transferred tumor infiltrating lymphocytes.
T-lymphoblasts were suspended in 10-15 mL of PBS and administered over 10 minutes either intravenously into the internal jugular vein (n=5) or intraarterially into the ascending aorta (n=1). Two of the pigs given intravenous administration were pretreated with LMW-DS (4.5 mg/kg) (Apoteket AB, Umeå, Sweden). The T-lymphoblasts were in these two cases co-administered intravenously together with LMW-DS (9 mg/kg, followed by continuous infusion of 7.2 mg/kg/h).
(§1) [^18F]FDG (t1/2=109.8 min) was prepared according to standard procedures (TRACERIab FxFDG, GE Medical Systems, USA). Cells were incubated with [^18F]FDG in 7-10 mL PBS for 60 minutes at 37° C. before being washed to remove excess radioactivity.
Six pigs were examined by PET after administration of [^18F]FDG-labeled T-lymphoblasts. A GE Discovery ST PET/CT scanner (n=3) or a Hamamatsu SHR-7700 scanner (n=3) was used. Dynamic sequences were acquired over the lungs and liver for up to 120 minutes. The kinetic data obtained was expressed as absolute number of cells or the percentage of administered cells. Results are given as averages±SEM.
The concentration and total amount of cells trapped in lung tissue could be quantified. Table 1 presents the amount of T-lymphoblasts in the lungs at 30 minutes. Between 80 and up to 635 million cells (16 to 79% of the grafts) was trapped in lung tissue after administration. To quantify the amount of cells trapped in hotspots we defined two levels of density: hotspots with a cellular density over either 250.000 cells/cc (moderate density) or over 500.000 cells/cc (high density).

[2] = human patients, following an administration of dextran sulfate; cited from earlier work
[3] = system: Porcine T-lymphoblasts; assay: T-lymphoblast labeling and in vitro retention of [18F]FDG; type: cell-based; conditions: mono-exponential fit, R^2=0.99; 6 time points over 120 minutes
Experimental: as §1
The retention (the rate of tracer washout through GLUTs after dephosphorylation of [^18F]FDG-6P) was measured in triplicates at 6 different time points over 120 minutes and the retention half-life was estimated by fitting the data to a mono-exponential curve.

[4] = range over the two LMW-DS pigs, lungs at 30 minutes

Row | Compound | % of cells in lungs ([1]; at 30 minutes, single pig) | lung uptake (% of the administered T-lymphoblasts), average ([1]; at completed transfusion, intravenous co-administration of LMW-DS, pretreated pigs, n=2) [%] | pulmonary uptake of T-lymphoblasts compared to intravenous administration alone (in words) [1] | pulmonary uptake of T-lymphoblasts compared to intravenous administration alone (in words) ([1]; listed as dextran sulfate) | amount of cells in high density hotspots [1, 4] | cells in high density hotspots as % of lung uptake [1, 4] | APTT safely achieved [2] | [18F]FDG retention half-life [3] [h]
1 | low molecular weight dextran sulfate [LMW-DS] | 16.3% and 31.8% | 36.6 | lower | decreased | 0-111 million cells | 0-39% | about 250 s | –
2 | OC[C@H]1OC(O)[C@H]([18F])[C@@H](O)[C@@H]1O (stereo partly drawn) [[^18F]FDG, ^18F-2-fluoro-2-deoxy-D-glucose] | – | – | – | – | – | – | – | 5.32
